Measured values reported in ChEMBL document CHEMBL5352388 (Eur J Med Chem, 2022).

What was measured:
[1] = target: Lysine-specific histone demethylase 1A (Homo sapiens, UniProt O60341)
Description: Inhibition of recombinant human LSD1 using fluorometric substrate by HRP based fluorimeter microplate reader assay

A549 = test: cells; conditions: Homo sapiens, A549, 72 h
Description: Antiproliferative activity against human A549 cells assessed as inhibition of cell growth incubated for 72 hrs by CCK-8 assay

NCI-H460 = test: cells; conditions: Homo sapiens, NCI-H460, 72 h
Description: Antiproliferative activity against human NCI-H460 cells assessed as inhibition of cell growth incubated for 72 hrs by CCK-8 assay

MCF7 = test: cells; conditions: Homo sapiens, MCF7, 72 h
Description: Antiproliferative activity against human MCF7 cells assessed as inhibition of cell growth incubated for 72 hrs by CCK-8 assay

HeLa = test: Antiproliferative activity against human HeLa cells assessed as inhibition of cell growth incubated for 72 hrs by CCK-8 assay; type: functional, cell-based
in vitro = conditions: human, THLE-2 cells
Description: Antiproliferative activity against human THLE-2 cells assessed as inhibition of cell growth incubated for 72 hrs by CCK-8 assay

MGC-803 = test: cells; conditions: Homo sapiens, MGC-803, 72 h
Description: Antiproliferative activity against human MGC-803 cells assessed as inhibition of cell growth incubated for 72 hrs by CCK-8 assay

Row | IC50 [1] | IC50 (A549) | IC50 (NCI-H460) | IC50 (MCF7) | IC50 (HeLa) | IC50 at 72 h (in vitro) | IC50 (MGC-803) | SMILES
1 | 0.165 µM | – | – | – | – | – | – | CC(=O)Nc1ccc(S(=O)(=O)n2cc(C(=O)N3CCC(N)CC3)c3cc(-c4ccc(C#N)cc4)c(-c4ccc(C)cc4)cc32)cc1
2 | 23 µM | – | – | – | – | – | – | Cc1ccc(-c2cc3[nH]cc(C(=O)N4CCC(N)CC4)c3cc2-c2ccc(S(N)(=O)=O)cc2)cc1
3 | 0.012 µM | 5.5 µM | 4.7 µM | 7.1 µM | 7.1 µM | 7.3 µM | 5.3 µM | Cc1ccc(-c2cc3c(cc2-c2ccc(C#N)cc2)c(C(=O)N2CCC(N)CC2)cn3C)cc1
4 | 0.087 µM | 2.7 µM | 17.7 µM | 14.7 µM | 13.4 µM | 13.3 µM | 12.1 µM | Cc1ccc(-c2cc3[nH]cc(C(=O)N4CCC(N)CC4)c3cc2-c2ccc(C#N)c(F)c2)cc1
5 | 0.969 µM | – | – | – | – | – | – | N#Cc1ccc(-c2cc3c(C(=O)N4CCC(N)CC4)c[nH]c3cc2-c2ccoc2)cc1
6 | 24 µM | – | – | – | – | – | – | Cc1ccc(-c2cc3[nH]cc(C(=O)NC4CCNC4)c3cc2-c2ccc(C(N)=O)cc2)cc1 (stereo unspecified)
7 | 20 µM | – | – | – | – | – | – | Cc1ccc(-c2cc3[nH]cc(C(=O)N4CCC(N)CC4)c3cc2-c2ccc([N+](=O)[O-])cc2)cc1
8 | 0.954 µM | – | – | – | – | – | – | N#Cc1ccc(-c2cc3c(C(=O)N4CCC(N)CC4)c[nH]c3cc2-c2cncnc2)cc1
9 | 0.114 µM | – | – | – | – | – | – | Cc1ccc(-c2cc3[nH]cc(C(=O)N4CCC(N)CC4)c3cc2-c2ccc(C#N)nc2)cc1
10 | 0.65 µM | – | – | – | – | – | – | Cc1ccc(-c2cc3[nH]cc(C(=O)N[C@H]4CC[C@H](N)CC4)c3cc2-c2ccc(C#N)cc2)cc1
11 | 0.6 µM | – | – | – | – | – | – | Cc1ccc(-c2cc3[nH]cc(C(=O)N4CCC(N)CC4)c3cc2-c2ccc(C#N)cc2C)cc1
12 | 0.118 µM | – | – | – | – | – | – | Cc1ccc(-c2cc3[nH]cc(C(=O)N4CCC(N)CC4)c3cc2-c2ccc(C#N)cc2)c(C)c1
13 | 20 µM | – | – | – | – | – | – | Cc1ccc(-c2cc3c(cc2-c2ccc(C(N)=O)cc2)c(C(=O)NC2CCNCC2)cn3C)cc1
14 | 0.897 µM | – | – | – | – | – | – | N#Cc1ccc(-c2cc3c(C(=O)N4CCC(N)CC4)c[nH]c3cc2-c2ccc(C(F)(F)F)cc2)cc1
15 | 0.028 µM | – | – | – | – | – | – | CCn1cc(C(=O)N2CCC(N)CC2)c2cc(-c3ccc(C#N)cc3)c(-c3ccc(C)cc3)cc21
16 | 0.335 µM | – | – | – | – | – | – | Cc1ccc(-c2cc3[nH]cc(C(=O)NC4CCNCC4)c3cc2-c2ccc(C#N)cc2)cc1
17 | 0.063 µM | 2.3 µM | 28.3 µM | 16.9 µM | 27 µM | 27.8 µM | 24 µM | Cc1ccc(-c2cc3[nH]cc(C(=O)N4CCC(N)CC4)c3cc2-c2ccc(C#N)cc2)c(F)c1
18 | 5 µM | – | – | – | – | – | – | Cc1ccc(-c2cc3[nH]cc(C(=O)N4CCC(N)CC4)c3cc2-c2ccc(O)cc2)cc1
19 | 1.74 µM | – | – | – | – | – | – | Cc1ccc(CS(=O)(=O)n2cc(C(=O)N3CCC(N)CC3)c3cc(-c4ccc(C#N)cc4)c(-c4ccc(C)cc4)cc32)cc1
20 | 0.085 µM | 8.8 µM | 16.2 µM | 6.1 µM | 11.4 µM | 17.5 µM | 9 µM | Cc1ccc(-c2cc3[nH]cc(C(=O)N4CCC[C@H](N)C4)c3cc2-c2ccc(C#N)cc2)cc1

Row | IC50 [1] | IC50 (A549) | IC50 (NCI-H460) | IC50 (MCF7) | IC50 (HeLa) | IC50 at 72 h (in vitro) | IC50 (MGC-803) | SMILES
21 | 0.339 µM | – | – | – | – | – | – | Cc1ccc(-c2cc3[nH]cc(C(=O)N4CCC[C@@H](N)C4)c3cc2-c2ccc(C#N)cc2)cc1
22 | 0.208 µM | – | – | – | – | – | – | COc1ccc(-c2cc3[nH]cc(C(=O)N4CCC(N)CC4)c3cc2-c2ccc(C#N)cc2)c(F)c1
23 | 0.018 µM | – | – | – | – | – | – | Cc1ccc(-c2cc3c(cc2-c2ccc(C#N)cc2)c(C(=O)N2CCC(N)CC2)cn3C2CC2)cc1
24 | 0.208 µM | – | – | – | – | – | – | Cc1ccc(-c2cc3[nH]cc(C(=O)NCC4CCNC4)c3cc2-c2ccc(C#N)cc2)cc1 (stereo unspecified)
25 | 0.18 µM | – | – | – | – | – | – | Cc1ccc(-c2cc3[nH]cc(C(=O)NCCN)c3cc2-c2ccc(C#N)cc2)cc1
26 | 22 µM | – | – | – | – | – | – | Cc1ccc(-c2cc3[nH]cc(C(=O)N4CCC(N)CC4)c3cc2-c2ccc(C(N)=O)cc2)cc1
27 | 0.369 µM | – | – | – | – | – | – | Cc1ccc(-c2cc3[nH]cc(C(=O)NC4CCNC4)c3cc2-c2ccc(C#N)cc2)cc1 (stereo unspecified)
28 | 0.015 µM | – | – | – | – | – | – | Cc1ccc(-c2cc3c(cc2-c2ccc(C#N)cc2)c(C(=O)N2CCC(N)CC2)cn3C(C)C)cc1
29 | 0.06 µM | 15.4 µM | 9.4 µM | 8.5 µM | 12.6 µM | 16.1 µM | 9.8 µM | Cc1ccc(-c2cc3[nH]cc(C(=O)NCC4CCNCC4)c3cc2-c2ccc(C#N)cc2)cc1
30 | 0.15 µM | – | – | – | – | – | – | Cc1ccc(-c2cc3[nH]cc(C(=O)NCCCN)c3cc2-c2ccc(C#N)cc2)cc1
31 | 0.135 µM | – | – | – | – | – | – | Cc1ccc(-c2cc3[nH]cc(C(=O)N4CCC(CN)CC4)c3cc2-c2ccc(C#N)cc2)cc1
32 | 0.103 µM | 3.5 µM | 29.3 µM | 10.2 µM | 16.6 µM | 29.9 µM | 15.6 µM | Cc1ccc(-c2cc3[nH]cc(C(=O)N4CCC(N)CC4)c3cc2-c2ccc(C#N)cc2)cc1F
33 | 0.123 µM | 17.3 µM | 26.9 µM | 14.7 µM | 14.7 µM | 29.6 µM | 12.9 µM | CCc1ccc(-c2cc3[nH]cc(C(=O)N4CCC(N)CC4)c3cc2-c2ccc(C#N)cc2)cc1
34 | 0.061 µM | 5.3 µM | 13.6 µM | 7 µM | 10 µM | 11.8 µM | 8.8 µM | Cc1cc(C)cc(-c2cc3[nH]cc(C(=O)N4CCC(N)CC4)c3cc2-c2ccc(C#N)cc2)c1
35 | 0.053 µM | 4.2 µM | 27.6 µM | 10 µM | 14.2 µM | 23.9 µM | 9.3 µM | Cc1ccc(-c2cc3[nH]cc(C(=O)N4CCC(N)CC4)c3cc2-c2ccc(C#N)cc2)cc1
36 | 0.11 µM | – | – | – | – | – | – | Cc1ccc(-c2cc3c(cc2-c2ccc(C#N)cc2)c(C(=O)N2CCC(N)CC2)cn3S(=O)(=O)c2ccc(C#N)cc2)cc1
37 | 0.4 µM | – | – | – | – | – | – | Cc1ccc(-c2cc3[nH]cc(C(=O)NC4CCCNC4)c3cc2-c2ccc(C#N)cc2)cc1 (stereo unspecified)
38 | 0.061 µM | 2.3 µM | 22.3 µM | 12.3 µM | 15.3 µM | 19.1 µM | 9.8 µM | Cc1ccc(-c2cc3[nH]cc(C(=O)N4CCNCC4)c3cc2-c2ccc(C#N)cc2)cc1
39 | 0.05 µM | 4.3 µM | 18.6 µM | 14.7 µM | 13.7 µM | 20.8 µM | 15.6 µM | Cc1ccc(-c2cc3[nH]cc(C(=O)N4CCC(N)CC4)c3cc2-c2ccc(C#N)cc2)cc1C

Row | SMILES | IC50 [1] | IC50 (A549) | IC50 (NCI-H460) | IC50 (MCF7) | IC50 (HeLa) | IC50 at 72 h (in vitro) | IC50 (MGC-803)
40 | Cc1ccc(-c2cc3c(cc2-c2ccc(C#N)cc2)c(C(=O)N2CCC(N)CC2)cn3Cc2cccc(Br)c2)cc1 | 0.554 µM | – | – | – | – | – | –
41 | Cc1ccc(-c2cc3c(cc2-c2ccc(C#N)cc2)c(C(=O)N2CCC(N)CC2)cn3Cc2ccc(Br)cc2)cc1 | 1 µM | – | – | – | – | – | –
42 | Cc1ccc(-c2cc3c(cc2-c2ccc(C#N)cc2)c(C(=O)N2CCC(N)CC2)cn3Cc2cccc(C#N)c2)cc1 | 0.161 µM | 3.4 µM | 7.7 µM | 6.7 µM | 6.6 µM | 5.8 µM | 4.6 µM
43 | Cc1ccc(Cn2cc(C(=O)N3CCC(N)CC3)c3cc(-c4ccc(C#N)cc4)c(-c4ccc(C)cc4)cc32)cc1 | 0.858 µM | – | – | – | – | – | –
44 | Cc1ccc(-c2cc3c(cc2-c2ccc(C#N)cc2)c(C(=O)N2CCC(N)CC2)cn3Cc2ccc(Cl)cc2)cc1 | 0.691 µM | – | – | – | – | – | –
